# In patent US6514913B1, “Weed growth inhibitory compositions” (Marubeni Agrotec Corporation, priority 1998, dated 2003):
# Experiments:
# Bentgrass = assay: Pot test in greenhouse, lawn phytotoxicity (Test Example 2); type: in vivo, Agrostis L.; set-up: key: −:None; ±:Very slight; +:Slight; 2+:Moderate; 3+:Heavy; ×:Dead; conditions: flowable of Preparation Example 3 on bred lawn sod in pots, 30 days after treatment
# From the text: (§1) Plastic pots having a size of 100 m^2/5000 were filled with soil of an upland farm, and planted with a lawn sod withdrawn by a hole cutter from various bred turfs. The planted pots were bred and managed in a greenhouse for about 1 month, and then the lawn grasses were cut to the same height to use the pots as sample pots. On the day of the cutting, a predetermined amount of the flowable prepared by the method described in the Preparation Example 3 applied to the sample pots in an amount of 250 ml/m^2 of dilution with water. Then, the pots were allowed to stand in the greenhouse, and sprinkled with water at the appropriate times. Thirty days after treatment with the composition, its phytotoxicity to the lawn grasses was observed. Evaluations of the phytotoxicity to the lawn grasses in the table were made according to the following criteria:
# flat-sedge = assay: Pot test in greenhouse, weed growth inhibition (Test Example 1); type: in vivo, Cyperus microiria; conditions: flowable of Preparation Example 3, soil surface one day after sowing, 30 days after treatment
# From the text: (§2) Plastic pots having a size of 100 m^2/3000 were filled with soil of an upland farm, and the surface of the soil was flattened. Then, the soil surfaces were sowed with weed seeds of annual bluegrass, foxtail, and flat-sedge. After sowing, the seeds were covered with soil to a height of about 5 mm. Also, the rhizomes of Cyperus brevifolius were buried to a depth of about 1 cm. One day after sowing, a predetermined amount of the flowable prepared by the method described in the Preparation Example 3 was applied to the soil surface in an amount of 250 ml/m^2 of dilution with water. Then, the pots were allowed to stand in the greenhouse, and sprinkled with water at the appropriate times. Thirty days after treatment with the composition, its growth inhibition effect was observed. The growth inhibition effect in the table was evaluated according to the following criteria:
# (§3) Evaluation Criteria for Weed Growth Inhibition Effect: […]
# Japanese lawngrass = assay: Pot test in greenhouse, lawn phytotoxicity (Test Example 2); type: in vivo, Zoysia japonica; set-up: key: −:None; ±:Very slight; +:Slight; 2+:Moderate; 3+:Heavy; ×:Dead; conditions: flowable of Preparation Example 3 on bred lawn sod in pots, 30 days after treatment
# From the text: as §1
# Bermudagrass = assay: as above; type: in vivo; set-up: key: −:None; ±:Very slight; +:Slight; 2+:Moderate; 3+:Heavy; ×:Dead; conditions: flowable of Preparation Example 3 on bred lawn sod in pots, 30 days after treatment
# From the text: as §1
# Cyperus brevifolius = assay: Pot test in greenhouse, weed growth inhibition (Test Example 1); type: in vivo; conditions: flowable of Preparation Example 3, soil surface, rhizomes buried about 1 cm, 30 days after treatment
# From the text: as §2, §3
# foxtail = assay: as above; type: in vivo; conditions: flowable of Preparation Example 3, soil surface one day after sowing, 30 days after treatment
# From the text: as §2, §3
# annual bluegrass [1] = assay: as above; type: in vivo, Poa annua L.; conditions: flowable of Preparation Example 3, soil surface one day after sowing, 30 days after treatment
# From the text: as §2, §3
# Kentucky bluegrass = assay: Pot test in greenhouse, lawn phytotoxicity (Test Example 2); type: in vivo, Poa pratensis; set-up: key: −:None; ±:Very slight; +:Slight; 2+:Moderate; 3+:Heavy; ×:Dead; conditions: flowable of Preparation Example 3 on bred lawn sod in pots, 30 days after treatment
# From the text: as §1
# Tall fescue = assay: as above; type: in vivo, Festuca arundinacea; set-up: key: −:None; ±:Very slight; +:Slight; 2+:Moderate; 3+:Heavy; ×:Dead; conditions: flowable of Preparation Example 3 on bred lawn sod in pots, 30 days after treatment
# From the text: as §1
# annual bluegrass [2] = assay: Field test, lawn grass seed overseeding test, weed growth inhibition (Test Example 4); type: in vivo, Poa annua L.; conditions: 30 days after treatment
# Experimental: Evaluation Criteria for Weed Growth Inhibition Effect:
# A land of breeding of South Japanese lawngrass was divided into plots of 1 m^2 (1×1 m), and seeds of perennial ryegrass or tall fescue, and seeds of annual bluegrass as a weed were sowed on the entire surface of each plot. On the day of sowing, a predetermined amount of the flowable prepared by the method described in the Preparation Example 3 was applied in an amount of 250 ml/m^2 of dilution with water. Thirty days after treatment with the composition, its weed growth inhibition effect and lawn phytotoxicity were observed. Evaluations of the weed growth inhibition effect and lawn phytotoxicity in the table were made according to mentioned criteria.
# Perennial ryegrass = assay: Pot test in greenhouse, lawn phytotoxicity (Test Example 2); type: in vivo, Lolium SPP.; set-up: key: −:None; ±:Very slight; +:Slight; 2+:Moderate; 3+:Heavy; ×:Dead; conditions: flowable of Preparation Example 3 on bred lawn sod in pots, 30 days after treatment
# From the text: as §1
# South Japanese lawngrass = assay: as above; type: in vivo, Zoysia matrella; set-up: key: −:None; ±:Very slight; +:Slight; 2+:Moderate; 3+:Heavy; ×:Dead; conditions: flowable of Preparation Example 3 on bred lawn sod in pots, 30 days after treatment
# From the text: as §1
# [3] = 100 g active ingredient/1000 m^2
# [4] = 250 g active ingredient/1000 m^2
# [5] = 500 g active ingredient/1000 m^2
# [6] = 750 g active ingredient/1000 m^2
# [7] = 1000 g active ingredient/1000 m^2
# [8] = 2000 g active ingredient/1000 m^2
# [9] = 50 g active ingredient/1000 m^2
smiles,measurement,setting,value
"CC(C)(NC(=O)NCc1ccccc1Cl)c1ccccc1 [cumyluron, 1-(2-chlorobenzyl)-3-(1-methyl-1-phenylethyl)urea]",Lawn phytotoxicity Bent-grass,Bentgrass; [3],−
same,Lawn phytotoxicity Bent-grass,Bentgrass; [4],−
same,Lawn phytotoxicity Bent-grass,Bentgrass; [5],−
same,Lawn phytotoxicity Bent-grass,Bentgrass; [6],−
same,Lawn phytotoxicity Bent-grass,Bentgrass; [7],−
same,Lawn phytotoxicity Bent-grass,Bentgrass; [8],−
same,Inhibitory effect flat-sedge,flat-sedge; [9],10 (10:100% inhibition)
same,Inhibitory effect flat-sedge,flat-sedge; [3],10 (10:100% inhibition)
same,Inhibitory effect flat-sedge,flat-sedge; [4],10 (10:100% inhibition)
same,Inhibitory effect flat-sedge,flat-sedge; [5],10 (10:100% inhibition)
same,Inhibitory effect flat-sedge,flat-sedge; [6],10 (10:100% inhibition)
same,Inhibitory effect flat-sedge,flat-sedge; [7],10 (10:100% inhibition)
same,Lawn phytotoxicity Japanese lawngrass,Japanese lawngrass; [3],−
same,Lawn phytotoxicity Japanese lawngrass,Japanese lawngrass; [4],−
same,Lawn phytotoxicity Japanese lawngrass,Japanese lawngrass; [5],−
same,Lawn phytotoxicity Japanese lawngrass,Japanese lawngrass; [6],−
same,Lawn phytotoxicity Japanese lawngrass,Japanese lawngrass; [7],−
same,Lawn phytotoxicity Japanese lawngrass,Japanese lawngrass; [8],−
same,Lawn phytotoxicity Bermuda-grass,Bermudagrass; [3],−
same,Lawn phytotoxicity Bermuda-grass,Bermudagrass; [4],−
same,Lawn phytotoxicity Bermuda-grass,Bermudagrass; [5],−
same,Lawn phytotoxicity Bermuda-grass,Bermudagrass; [6],−
same,Lawn phytotoxicity Bermuda-grass,Bermudagrass; [7],−
same,Lawn phytotoxicity Bermuda-grass,Bermudagrass; [8],−
same,Inhibitory effect Cyperus brevifolius,Cyperus brevifolius; [9],1 (1:10% inhibition)
same,Inhibitory effect Cyperus brevifolius,Cyperus brevifolius; [3],5 (5:50% inhibition)
same,Inhibitory effect Cyperus brevifolius,Cyperus brevifolius; [4],9 (9:90% inhibition)
same,Inhibitory effect Cyperus brevifolius,Cyperus brevifolius; [5],10 (10:100% inhibition)
same,Inhibitory effect Cyperus brevifolius,Cyperus brevifolius; [6],10 (10:100% inhibition)
same,Inhibitory effect Cyperus brevifolius,Cyperus brevifolius; [7],10 (10:100% inhibition)
same,Inhibitory effect foxtail,foxtail; [9],9 (9:90% inhibition)
same,Inhibitory effect foxtail,foxtail; [3],10 (10:100% inhibition)
same,Inhibitory effect foxtail,foxtail; [4],10 (10:100% inhibition)
same,Inhibitory effect foxtail,foxtail; [5],10 (10:100% inhibition)
same,Inhibitory effect foxtail,foxtail; [6],10 (10:100% inhibition)
same,Inhibitory effect foxtail,foxtail; [7],10 (10:100% inhibition)
same,Inhibitory effect annual bluegrass,annual bluegrass [1]; [9],9 (9:90% inhibition)
same,Inhibitory effect annual bluegrass,annual bluegrass [1]; [3],10 (10:100% inhibition)
same,Inhibitory effect annual bluegrass,annual bluegrass [1]; [4],10 (10:100% inhibition)
same,Inhibitory effect annual bluegrass,annual bluegrass [1]; [5],10 (10:100% inhibition)
same,Inhibitory effect annual bluegrass,annual bluegrass [1]; [6],10 (10:100% inhibition)
same,Inhibitory effect annual bluegrass,annual bluegrass [1]; [7],10 (10:100% inhibition)
same,Lawn phytotoxicity Kentucky bluegrass,Kentucky bluegrass; [3],−
same,Lawn phytotoxicity Kentucky bluegrass,Kentucky bluegrass; [4],−
same,Lawn phytotoxicity Kentucky bluegrass,Kentucky bluegrass; [5],−
same,Lawn phytotoxicity Kentucky bluegrass,Kentucky bluegrass; [6],−
same,Lawn phytotoxicity Kentucky bluegrass,Kentucky bluegrass; [7],−
same,Lawn phytotoxicity Kentucky bluegrass,Kentucky bluegrass; [8],−
same,Lawn phytotoxicity Tall fescue,Tall fescue; [3],−
same,Lawn phytotoxicity Tall fescue,Tall fescue; [4],−
same,Lawn phytotoxicity Tall fescue,Tall fescue; [5],−
same,Lawn phytotoxicity Tall fescue,Tall fescue; [6],−
same,Lawn phytotoxicity Tall fescue,Tall fescue; [7],−
same,Lawn phytotoxicity Tall fescue,Tall fescue; [8],−
same,Inhibitory effect annual bluegrass,"annual bluegrass [2]; 100 g active ingredient/1000 m^2, flowable of Preparation Example 3 applied on the day of sowing",10 (10:100% inhibition)
same,Inhibitory effect annual bluegrass,"annual bluegrass [2]; 250 g active ingredient/1000 m^2, flowable of Preparation Example 3 applied on the day of sowing",10 (10:100% inhibition)
same,Inhibitory effect annual bluegrass,"annual bluegrass [2]; 500 g active ingredient/1000 m^2, flowable of Preparation Example 3 applied on the day of sowing",10 (10:100% inhibition)
same,Inhibitory effect annual bluegrass,"annual bluegrass [2]; 750 g active ingredient/1000 m^2, flowable of Preparation Example 3 applied on the day of sowing",10 (10:100% inhibition)
same,Inhibitory effect annual bluegrass,"annual bluegrass [2]; 1000 g active ingredient/1000 m^2, flowable of Preparation Example 3 applied on the day of sowing",10 (10:100% inhibition)
same,Lawn phytotoxicity Perennial ryegrass,Perennial ryegrass; [3],−
same,Lawn phytotoxicity Perennial ryegrass,Perennial ryegrass; [4],−
same,Lawn phytotoxicity Perennial ryegrass,Perennial ryegrass; [5],−
same,Lawn phytotoxicity Perennial ryegrass,Perennial ryegrass; [6],−
same,Lawn phytotoxicity Perennial ryegrass,Perennial ryegrass; [7],−
same,Lawn phytotoxicity Perennial ryegrass,Perennial ryegrass; [8],−
same,Lawn phytotoxicity South Japanese lawngrass,South Japanese lawngrass; [3],−
same,Lawn phytotoxicity South Japanese lawngrass,South Japanese lawngrass; [4],−
same,Lawn phytotoxicity South Japanese lawngrass,South Japanese lawngrass; [5],−
same,Lawn phytotoxicity South Japanese lawngrass,South Japanese lawngrass; [6],−
same,Lawn phytotoxicity South Japanese lawngrass,South Japanese lawngrass; [7],−
same,Lawn phytotoxicity South Japanese lawngrass,South Japanese lawngrass; [8],−
